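These data come from cells grown in 96-well plates and exposed to compound for 48 hours at five concentrations. Abbreviation: GI50, concentration required for 50% inhibition of growth. TGI marks complete inhibition of growth.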
Assays:
Assay in all cases: NCI tumour cell line growth inhibition, 48 h
[1] = test system: 786-0 renal
[2] = test system: A498 renal
[3] = test system: A549 NSCLC
[4] = test system: ACHN renal
[5] = test system: BT-549 breast
[6] = test system: CAKI-1 renal
[7] = test system: COLO 205 colon
[8] = test system: DU-145 prostate
[9] = test system: EKVX NSCLC
[10] = test system: HCC-2998 colon
[11] = test system: HCT-116 colon
[12] = test system: HCT-15 colon
[13] = test system: HOP-62 NSCLC
[14] = test system: HS 578T breast
[15] = test system: HT29 colon
[16] = test system: IGROV1 ovarian
[17] = test system: KM12 colon
[18] = test system: LOX IMVI melanoma
[19] = test system: M14 melanoma
[20] = test system: MALME-3M melanoma
[21] = test system: MCF7 breast
[22] = test system: MDA-MB-231 breast
[23] = test system: MDA-MB-435
[24] = test system: NCI-H226 lung
[25] = test system: NCI-H23 lung
[26] = test system: NCI-H460 lung
[27] = test system: NCI-H522 lung
[28] = test system: NCI/ADR-RES ovarian
[29] = test system: OVCAR-3 ovarian
[30] = test system: OVCAR-4 ovarian
[31] = test system: OVCAR-5 ovarian
[32] = test system: OVCAR-8 ovarian
[33] = test system: PC-3 prostate
[34] = test system: RPMI-8226 leukemia
[35] = test system: RXF 393 renal
[36] = test system: SF-268 CNS
[37] = test system: SF-295 CNS
[38] = test system: SF-539 CNS
[39] = test system: SK-MEL-2 melanoma
[40] = test system: SK-MEL-28 melanoma
[41] = test system: SK-MEL-5 melanoma
[42] = test system: SK-OV-3 ovarian
[43] = test system: SN12C renal
[44] = test system: SNB-19 CNS
[45] = test system: SNB-75 CNS
[46] = test system: SW-620 colon
[47] = test system: T-47D breast
[48] = test system: TK-10 renal
[49] = test system: U251 CNS
[50] = test system: UACC-257 melanoma
[51] = test system: UACC-62 melanoma
[52] = test system: UO-31 renal

O=c1c2ccccc2c(Br)c(Br)c2ccccc12
GI50 [1]: 14.7 µM
TGI [1]: 29.8 µM
GI50 [2]: 5.37 µM
TGI [2]: 23 µM
GI50 [3]: 20.6 µM
TGI [3]: 73 µM
GI50 [4]: 7.46 µM
TGI [4]: 21.9 µM
GI50 [5]: 19 µM
TGI [5]: 34.4 µM
GI50 [6]: 1.78 µM
TGI [6]: 4.39 µM
GI50 [7]: 8.61 µM
TGI [7]: 23.7 µM
GI50 [8]: 4.02 µM
TGI [8]: 15.8 µM
GI50 [9]: 14.2 µM
TGI [9]: 64.3 µM
GI50 [10]: 17.3 µM
TGI [10]: 35.8 µM
GI50 [11]: 4.92 µM
TGI [11]: 29.3 µM
GI50 [12]: 10.7 µM
TGI [12]: > 100 µM
GI50 [13]: 21 µM
TGI [13]: 41.9 µM
GI50 [14]: 11.8 µM
TGI [14]: 42.1 µM
GI50 [15]: 3.04 µM
TGI [15]: 8.13 µM
GI50 [16]: 2.37 µM
TGI [16]: 5.37 µM
GI50 [17]: 12.5 µM
TGI [17]: 29.6 µM
GI50 [18]: 2.22 µM
TGI [18]: 5.77 µM
GI50 [19]: 4.8 µM
TGI [19]: 16.3 µM
GI50 [20]: 2.66 µM
TGI [20]: 7.65 µM
GI50 [21]: 5.6 µM
TGI [21]: 46.1 µM
GI50 [22]: 19.9 µM
TGI [22]: 50.7 µM
GI50 [23]: 4.56 µM
TGI [23]: 21 µM
GI50 [24]: 24.1 µM
TGI [24]: 79.5 µM
GI50 [25]: 12.7 µM
TGI [25]: 38.7 µM
GI50 [26]: 14.5 µM
TGI [26]: 34.5 µM
GI50 [27]: 1.76 µM
TGI [27]: 3.47 µM
GI50 [28]: 16.5 µM
TGI [28]: 40.6 µM
GI50 [29]: 3.37 µM
TGI [29]: 12 µM
GI50 [30]: 9.24 µM
TGI [30]: 80.9 µM
GI50 [31]: 30.2 µM
TGI [31]: > 100 µM
GI50 [32]: 13.9 µM
TGI [32]: 34.2 µM
GI50 [33]: 10.1 µM
TGI [33]: 30.2 µM
GI50 [34]: 2.51 µM
TGI [34]: 5.84 µM
GI50 [35]: 3.32 µM
TGI [35]: 12.7 µM
GI50 [36]: 8.89 µM
TGI [36]: 25 µM
GI50 [37]: 17.1 µM
TGI [37]: 36 µM
GI50 [38]: 13.3 µM
TGI [38]: 37.2 µM
GI50 [39]: 13.3 µM
TGI [39]: 32.5 µM
GI50 [40]: 24.9 µM
TGI [40]: > 100 µM
GI50 [41]: 13.6 µM
TGI [41]: 31.6 µM
GI50 [42]: 38.3 µM
TGI [42]: > 100 µM
GI50 [43]: 15.8 µM
TGI [43]: 32.8 µM
GI50 [44]: 45.4 µM
TGI [44]: > 100 µM
GI50 [45]: 19.2 µM
TGI [45]: 56 µM
GI50 [46]: 1.09 µM
TGI [46]: 3.13 µM
GI50 [47]: 4.43 µM
TGI [47]: 32.3 µM
GI50 [48]: 3.91 µM
TGI [48]: 18 µM
GI50 [49]: 12.6 µM
TGI [49]: 29 µM
GI50 [50]: 7.48 µM
TGI [50]: 43.6 µM
GI50 [51]: 18.3 µM
TGI [51]: 59.5 µM
GI50 [52]: 1.9 µM
TGI [52]: 3.44 µM

Source: PubChem BioAssay (NCI)
